Patent US10752615B2, “Spirocyclic containing compounds and pharmaceutical uses thereof” (GB005, Inc., priority 2016, dated 2020)

Tests used:
[1] = molecular target: TXK (Homo sapiens (Human), UniProt P42681); assay: Kinase inhibition assay (Nanosyn, microfluidic detection), TXK; format: biochemical; settings: 1 mM ATP, 3 hours at 25° C.
Protocol: The in vitro kinase assays were performed at Nanosyn (Santa Clara, Calif.) utilizing microfluidic detection technology. The test compounds were serially pre-diluted in DMSO and added, by the acoustic dispensing (Labcyte® 550), directly to 384 well assay plates into 10 uL of a buffer with enzyme (ITK, TXK, BTK or TEC) comprising: 100 mM HEPES, pH7.5, 5 mM MgCl2, 0.1% bovine serum albumin, 1 mM DTT, 0.01% Triton X-100 and the enzyme. Final DMSO concentration was maintained at 1% in all samples, including the controls. The reactions were initiated by addition of ATP (1 mM final concentration) and the fluorescently labeled peptide substrate to a final concentration of 1 uM, and incubated for 3 hours at 25° C. Following incubation, the reactions were quenched by addition of 40 μL of termination buffer (100 mM HEPES, pH7.5, 0.01% Triton X-100, 50 mM EDTA). Terminated plates were analyzed using Caliper LabChip® 3000 microfluidic electrophoresis instrument (Caliper Life Sciences/Perkin Elmer). […] As substrate and product are separated by electrophoresis, two peaks of fluorescence are observed. Change in the relative fluorescence intensity of the substrate and product peaks was the parameter measured, reflecting enzyme activity. In the presence of inhibitor, the ratio between product and substrate is altered: signal of the product decreases, while the signal of the substrate increases. Activity in each test sample was determined as the product to sum ratio (PSR): P/(S+P), where P is the peak height of the product and S is the peak height of the […]. For each compound, enzyme activity was measured at 12 concentrations spaced by 3× dilution intervals. Negative control samples (0%-inhibition in the absence of inhibitor, DMSO only) and positive control samples (100%-inhibition, in the absence of enzyme or in the presence of control inhibitor) were assembled in replicates of four and were used to calculate %-inhibition values in the presence of compounds. Percent inhibition (Pinh) was determined using the following equation: Pinh=(PSR0%−PSRinh)/(PSR0%−PSR100%)*100, where PSRinh is the product sum ratio in the presence of inhibitor, PSR0% is the product sum ratio in the absence of inhibitor and PSR100% is the product sum ratio in 100%-inhibition control samples. To determine IC50 values, the inhibition curves (Pinh versus inhibitor concentration) were fitted by 4 parameter sigmoid dose-response model using XLfit software (IDBS).

[2] = molecular target: BTK (Homo sapiens (Human), UniProt Q06187); assay: Kinase inhibition assay (Nanosyn, microfluidic detection), BTK; format: biochemical; settings: 1 mM ATP, 3 hours at 25° C.
BTK, sequence (Q06187 whole entry): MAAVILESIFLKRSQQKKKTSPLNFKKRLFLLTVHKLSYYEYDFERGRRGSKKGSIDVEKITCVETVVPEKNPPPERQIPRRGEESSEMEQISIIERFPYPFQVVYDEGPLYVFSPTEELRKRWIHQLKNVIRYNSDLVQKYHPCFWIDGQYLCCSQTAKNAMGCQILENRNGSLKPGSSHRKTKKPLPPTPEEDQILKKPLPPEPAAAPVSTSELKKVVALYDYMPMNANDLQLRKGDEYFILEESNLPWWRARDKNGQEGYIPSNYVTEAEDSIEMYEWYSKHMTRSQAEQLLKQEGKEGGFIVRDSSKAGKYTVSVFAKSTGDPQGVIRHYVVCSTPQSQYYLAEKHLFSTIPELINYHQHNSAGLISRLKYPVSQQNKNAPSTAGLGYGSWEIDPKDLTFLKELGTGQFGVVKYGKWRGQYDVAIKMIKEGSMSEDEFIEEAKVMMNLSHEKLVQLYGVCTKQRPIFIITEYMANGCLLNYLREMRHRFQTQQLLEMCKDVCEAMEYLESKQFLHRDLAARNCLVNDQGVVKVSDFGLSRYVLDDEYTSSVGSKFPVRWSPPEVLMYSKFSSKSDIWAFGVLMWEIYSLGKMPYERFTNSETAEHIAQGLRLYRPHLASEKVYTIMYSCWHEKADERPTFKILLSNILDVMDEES
Protocol: The in vitro kinase assays were performed at Nanosyn (Santa Clara, Calif.) utilizing microfluidic detection technology. The test compounds were serially pre-diluted in DMSO and added, by the acoustic dispensing (Labcyte® 550), directly to 384 well assay plates into 10 uL of a buffer with enzyme (ITK, TXK, BTK or TEC) comprising: 100 mM HEPES, pH7.5, 5 mM MgCl2, 0.1% bovine serum albumin, 1 mM DTT, 0.01% Triton X-100 and the enzyme. Final DMSO concentration was maintained at 1% in all samples, including the controls. The reactions were initiated by addition of ATP (1 mM final concentration) and the fluorescently labeled peptide substrate to a final concentration of 1 uM, and incubated for 3 hours at 25° C. Following incubation, the reactions were quenched by addition of 40 μL of termination buffer (100 mM HEPES, pH7.5, 0.01% Triton X-100, 50 mM EDTA). Terminated plates were analyzed using Caliper LabChip® 3000 microfluidic electrophoresis instrument (Caliper Life Sciences/Perkin Elmer). The enzymatic modification of the peptide substrate (phosphorylation) results in a change of net charge enabling electrophoretic separation of product from substrate. As substrate and product are separated by electrophoresis, two peaks of fluorescence are observed. Change in the relative fluorescence intensity of the substrate and product peaks was the parameter measured, reflecting enzyme activity. In the presence of inhibitor, the ratio between product and substrate is altered: signal of the product decreases, while the signal of the substrate increases. Activity in each test sample was determined as the product to sum ratio (PSR): P/(S+P), where P is the peak height of the product and S is the peak height of the […]. For each compound, enzyme activity was measured at 12 concentrations spaced by 3× dilution intervals. Negative control samples (0%-inhibition in the absence of inhibitor, DMSO only) and positive control samples (100%-inhibition, in the absence of enzyme or in the presence of control inhibitor) were assembled in replicates of four and were used to calculate %-inhibition values in the presence of compounds. Percent inhibition (Pinh) was determined using the following equation: Pinh=(PSR0%−PSRinh)/(PSR0%−PSR100%)*100, where PSRinh is the product sum ratio in the presence of inhibitor, PSR0% is the product sum ratio in the absence of inhibitor and PSR100% is the product sum ratio in 100%-inhibition control samples. To determine IC50 values, the inhibition curves (Pinh versus inhibitor concentration) were fitted by 4 parameter sigmoid dose-response model using XLfit software (IDBS).

TXK, sequence (P42681 whole entry): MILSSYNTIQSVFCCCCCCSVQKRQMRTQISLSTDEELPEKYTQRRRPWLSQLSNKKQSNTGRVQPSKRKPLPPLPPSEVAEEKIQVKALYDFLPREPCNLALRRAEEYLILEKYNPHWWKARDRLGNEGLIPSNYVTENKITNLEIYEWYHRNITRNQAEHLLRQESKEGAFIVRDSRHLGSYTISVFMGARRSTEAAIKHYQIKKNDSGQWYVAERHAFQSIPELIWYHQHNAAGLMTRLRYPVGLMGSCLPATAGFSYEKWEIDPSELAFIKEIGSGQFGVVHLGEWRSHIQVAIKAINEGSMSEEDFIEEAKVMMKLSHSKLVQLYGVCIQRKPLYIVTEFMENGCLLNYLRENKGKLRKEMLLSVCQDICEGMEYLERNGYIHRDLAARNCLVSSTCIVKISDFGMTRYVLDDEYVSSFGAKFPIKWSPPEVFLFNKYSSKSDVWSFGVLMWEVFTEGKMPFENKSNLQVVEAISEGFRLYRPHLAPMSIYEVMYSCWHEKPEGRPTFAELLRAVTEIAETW

| IC50 [1] [nM] | IC50 [2] [nM] | Structure (SMILES) |
| --- | --- | --- |
| 39.7 | 124 | C=CC(=O)N1CC[C@]2(C1)C[C@H](n1c(NC(=O)c3ccc(-c4cnco4)s3)nc3c(Cl)cccc31)C2 [Compound 64] |
| 0.42 | 1.99 | C=CC(=O)N1CC[C@]2(C1)C[C@H](n1c(NC(=O)c3ccc(-c4cnco4)s3)nc3ccc(Cl)cc31)C2 [Compound 65] |
| 4.34 | 11.2 | C=CC(=O)N1CC[C@]2(C1)C[C@H](n1c(NC(=O)c3ccc(Oc4ccccc4)nc3)nc3ccccc31)C2 [Compound 66] |
| 19.7 | 99.2 | C=CC(=O)N1CC[C@]2(C1)C[C@@H](n1c(NC(=O)c3ccc(-c4cnco4)s3)nc3c(F)cccc31)C2 [Compound 67] |
| 1.62 | 25.8 | C=CC(=O)N1CC[C@]2(C1)C[C@H](n1c(NC(=O)c3ccc(-c4ccccn4)s3)nc3ccccc31)C2 [Compound 74] |
| 0.12 | 1.03 | C=CC(=O)N1CC[C@]2(C1)C[C@H](n1c(NC(=O)c3ccc(-c4ccnn4C)s3)nc3ccccc31)C2 [Compound 75] |
| 2.8 | 22.6 | C=CC(=O)N1CC[C@]2(C1)C[C@H](n1c(NC(=O)c3ccc(-c4cccnn4)s3)nc3ccccc31)C2 [Compound 76] |
| 0.37 | 0.78 | C=CC(=O)N1CC[C@]2(C1)C[C@H](n1c(NC(=O)c3ccc(-c4cnco4)s3)nc3ccc(CN4CCOCC4)cc31)C2 [Compound 77] |
| 2.34 | 11.7 | C=CC(=O)N1CC[C@]2(C1)C[C@@H](n1c(NC(=O)c3ccc(-c4cnco4)s3)nc3ccc(CO)cc31)C2 [Compound 78] |
| 17 | 251 | C=CC(=O)N1CC[C@]2(C1)C[C@H](n1c(NC(=O)c3cc(C)cs3)nc3ccccc31)C2 [Compound 79] |
| 3.33 | 33.2 | C=CC(=O)N1CC[C@]2(C1)C[C@H](n1c(NC(=O)c3cccs3)nc3ccccc31)C2 [Compound 82] |
| 1.98 | 7.55 | C=CC(=O)N1CC[C@]2(C1)C[C@H](n1c(NC(=O)c3ccc(=O)[nH]c3)nc3ccccc31)C2 [Compound 83] |
| 19.8 | 65.3 | C=CC(=O)N1CC[C@]2(C1)C[C@H](n1c(NC(=O)c3ccn(C)c(=O)c3)nc3ccccc31)C2 [Compound 84] |
| 2.24 | 8.41 | C=CC(=O)N1CC[C@]2(C1)C[C@@H](n1c(NC(=O)c3ccc(-c4cnco4)s3)nc3ccc(CN4CCCC4)cc31)C2 [Compound 86] |
| 3.17 | 23.7 | C=CC(=O)N1CC[C@]2(C1)C[C@H](n1c(NC(=O)c3ccc(-n4cccn4)s3)nc3ccccc31)C2 [Compound 89] |
| 0.51 | 5.23 | C=CC(=O)N1CC[C@]2(C1)C[C@H](n1c(NC(=O)c3ccc(-c4cccnc4)s3)nc3ccccc31)C2 [Compound 90] |
| 0.82 | 1.38 | C=CC(=O)N1CC[C@]2(C1)C[C@H](n1c(NC(=O)c3ccc(-c4nnc(C)o4)s3)nc3ccccc31)C2 [Compound 94] |
| 9.12 | 19.4 | C=CC(=O)N1CC[C@]2(C1)C[C@H](n1c(NC(=O)c3ccc(-c4ccc(OC)nc4)s3)nc3ccccc31)C2 [Compound 95] |
| 0.35 | 1.55 | C=CC(=O)N1CC[C@]2(C1)C[C@H](n1c(NC(=O)c3ccc(-c4ccnc(OC)c4)s3)nc3ccccc31)C2 [Compound 96] |

| IC50 [1] [nM] | IC50 [2] [nM] | Structure (SMILES) |
| --- | --- | --- |
| 1.01 | 10.2 | C=CC(=O)N1CC[C@]2(C1)C[C@H](n1c(NC(=O)c3ccc(-c4ccc(=O)[nH]c4)s3)nc3ccccc31)C2 [Compound 99] |
| 0.93 | 9.24 | C=CC(=O)N1CC[C@]2(C1)C[C@H](n1c(NC(=O)c3ccc(C(=O)NCC)s3)nc3ccccc31)C2 [Compound 101] |
| 0.93 | 6.12 | C=CC(=O)N1CC[C@]2(C1)C[C@H](n1c(NC(=O)c3ccc(-c4ccccc4)s3)nc3ccccc31)C2 [Compound 103] |
| 2.16 | 26.2 | C=CC(=O)N1CC[C@]2(C1)C[C@H](n1c(NC(=O)c3ccc(C)s3)nc3ccccc31)C2 [Compound 104] |
| 23.2 | 112 | C=CC(=O)N1CC[C@]2(C1)C[C@H](n1c(NC(=O)c3ccc(NC(=O)CC)s3)nc3ccccc31)C2 [Compound 105] |
| 5.25 | 21.1 | C#Cc1ccc(C(=O)Nc2nc3ccccc3n2[C@H]2C[C@@]3(CCN(C(=O)C=C)C3)C2)s1 [Compound 107] |
| 1.02 | 10.4 | C=CC(=O)N1CC[C@]2(C1)C[C@H](n1c(NC(=O)c3ccc(-c4ccc(=O)n(C)c4)s3)nc3ccccc31)C2 [Compound 108] |
| 14 | 43.5 | C=CC(=O)N1CC[C@]2(C1)C[C@H](n1c(NC(=O)c3ccc(-c4ccn(C)c(=O)c4)s3)nc3ccccc31)C2 [Compound 109] |
| 0.18 | 1.11 | C=CC(=O)N1CC[C@]2(C1)C[C@H](n1c(NC(=O)c3ccc(-c4ccncc4)s3)nc3ccccc31)C2 [Compound 110] |
| 1.32 | 4.63 | C=CC(=O)N1CC[C@]2(C1)C[C@H](n1c(NC(=O)c3ccc(-c4cnn(C)c4)s3)nc3ccccc31)C2 [Compound 113] |
| 0.22 | 3.31 | C=CC(=O)N1CC[C@]2(C1)C[C@H](n1c(NC(=O)c3ccc(-c4ccnnc4)s3)nc3ccccc31)C2 [Compound 114] |
| 3.08 | 15.7 | C=CC(=O)N1CC[C@]2(C1)C[C@H](n1c(NC(=O)c3ccc(-c4cc[nH]n4)s3)nc3ccccc31)C2 [Compound 116] |
| 4.9 | 7.43 | C=CC(=O)N1CC[C@]2(C1)C[C@H](n1c(NC(=O)c3ccc(-c4ccc(NC)nc4)s3)nc3ccccc31)C2 [Compound 117] |
| 0.49 | 5.33 | C=CC(=O)N1CC[C@]2(C1)C[C@H](n1c(NC(=O)c3ccc(-c4cncn4C)s3)nc3ccccc31)C2 [Compound 123] |
| 0.34 | 1.43 | C=CC(=O)N1CC[C@]2(C1)C[C@H](n1c(NC(=O)c3ccc(-c4cn[nH]c4)s3)nc3ccccc31)C2 [Compound 124] |
| 0.24 | 1.06 | C=CC(=O)N1CC[C@]2(C1)C[C@H](n1c(NC(=O)c3ccc(-c4ccnc(F)c4)s3)nc3ccccc31)C2 [Compound 125] |
| 0.8 | 9.21 | C=CC(=O)N1CC[C@]2(C1)C[C@H](n1c(NC(=O)c3ccc(-c4ccc(F)nc4)s3)nc3ccccc31)C2 [Compound 126] |
| 0.21 | 0.84 | C=CC(=O)N1CC[C@]2(C1)C[C@H](n1c(NC(=O)c3ccc(-c4c[nH]nc4C4CC4)s3)nc3ccccc31)C2 [Compound 129] |
| 1.99 | 10.3 | C=CC(=O)N1CC[C@]2(C1)C[C@H](n1c(NC(=O)c3ccc(-c4cnccn4)s3)nc3ccccc31)C2 [Compound 132] |
